Experimental data from patent US6126909A, “Process and apparatus for the production of BI-212 and a use thereof” (Arch Development Corporation, priority 1999, dated 2000).
Several values for one entry are separate records, joined by “and”; a condition that tells them apart may be missing. Equal values may be shown once.

Tests used:
[1] = system: Ehrlich-Lettre Ascites carcinoma cells; assay: In vitro irradiation survival (clonogenic), monolayer; format: cell-based; settings: dose increment reducing survival to 37 percent
Description: In vitro studies were carried out using three well known cell lines, the cells from which were exposed to radiation from: (1) an X-ray source; (2) P-32 chromic phosphate; and (3) Bi-212 chloride. The three cell lines that were used are V-79, which is a Chinese hamster lung fibroblast, Ehrlich-Lettre Ascites carcinoma (ATCC CCL 77), which is an ascites producing -tumor, and NIH:OVCAR-3 (ATCC HTB 161), which is a human ovarian adenocarcinoma. These well known cell lines are predictive of what happens in vivo. The cells were grown as monolayers and into spheroid formations and subsequently irradiated, as described herein. […]
(§1) The cell lines were also irradiated using Bi-212. […] The filter was purged with 1 ml of distilled deionized water, and the radioactivity was assayed using a calibrated 3×3-in. […]
(§2) Cells were exposed over a period of four hours. The dose (D) per microCurie was calculated and corrected for decay as follows: [formula] where V=volume in milliliters, and […]
(§3) Following plating, survival measurements were taken for each of the irradiated cell samples. […] The plates were then stained with crystal violet and colonies greater than 50 cells were scored. The surviving fraction was then determined.
(§4) Intrinsic radiosensitivity (Do) was calculated from the survival curves. […]

[2] = Biodistribution after intraperitoneal instillation; format: in vivo, rabbit
Description: In vivo studies were conducted to determine the distribution of Bi-212 produced using the above-noted process and to compare the Bi-212 distribution to the distribution of Pb-212 ferrous hydroxide in colloidal form. The in vivo studies were conducted using white, female New Zealand rabbits weighing about 4.5 kilograms ([…]) each. Studies were also conducted using rabbits to determine the toxicity levels, e.g., the maximum tolerated dose. Efficacy studies were conducted using 25 gram (gm) female Swiss-Webster mice inoculated with Ehrlich-Lettre Ascites carcinoma cells.
The rabbits were first anesthetized by intravenous titration. A polyethylene catheter was then inserted into the lower right quadrant of the rabbits' abdominal cavities and a trace amount of technetium-99m pertechnetate was instilled to confirm that the catheter was correctly placed.
Groups of rabbits were instilled with a varying amounts (correlating to varying activities) of Bi-212 that were prepared in accordance with the before-described process, neutralized to pH values of between 5.0 and 7.4, and had added thereto a quantity of normal saline to make a 200 cc sample. To compare the distribution of Bi-212, Pb-212 ferrous hydroxide was prepared in accordance with known methods. Rotmensch et al., Gynecol. Oncol., 35:297-300 (1989). Groups of rabbits were also instilled with the Pb-212 ferrous hydroxide preparation.
After instillation, the rabbits were rotated and imaged with a gamma camera set at 2.6 MeV. Where localization of the nuclide was identified in the rabbits, the rabbits were sacrificed and the localized area was excised and photographed.
Of the groups of rabbits instilled with the Bi-212 solution, a rabbit was imaged and necropsied at each of one-half hour, one hour and three hours after instillation. The percent injected activity (%IA) in each organ was measured to determine the distribution of the Bi-212(Table 6). To determine whether chelating to DTPA improved the retention of Bi-212 in the peritoneal fluid, a group of rabbits was instilled with Bi-212 DTPA, and was imaged and necropsied at three hours following instillation. The percent activity remaining in the peritoneal fluid was measured.

[3] = system: NIH:OVCAR-3 cells (spheroids); assay: In vitro irradiation survival, spheroids; format: cell-based, human; settings: OVCAR-3 spheroids
Description: In vitro studies were carried out using three well known cell lines, the cells from which were exposed to radiation from: (1) an X-ray source; (2) P-32 chromic phosphate; and (3) Bi-212 chloride. The three cell lines that were used are V-79, which is a Chinese hamster lung fibroblast, Ehrlich-Lettre Ascites carcinoma (ATCC CCL 77), which is an ascites producing -tumor, and NIH:OVCAR-3 (ATCC HTB 161), which is a human ovarian adenocarcinoma. These well known cell lines are predictive of what happens in vivo. The cells were grown as monolayers and into spheroid formations and subsequently irradiated, as described herein.
The V-79 cells were maintained under exponential growth conditions in minimal essential medium (MEM) supplemented with 10 percent fetal bovine serum. The Ehrlich-Lettre Ascites carcinoma cells were maintained in 90 percent NCTC 109 supplemented with 10 percent fetal bovine serum. The NIH:OVCAR-3 cells were maintained in RPMI 1640 and 10 percent fetal bovine serum.
To initiate the formation of the spheroids, cells at a concentration of about 500,000 cells per flask were seeded onto petri dishes base-cooked with 1 percent agar MEM without serum. After spheroids having a size of about 20 micrometers (μm) formed, the spheroids were transferred to spinner bottles and maintained for two to three weeks at a temperature of 37° C. in a CO2 incubator until they grew to 10 to 1000 μm. Prior to irradiation, the spheroids were sized and separated using a spheroid separation column.
Cells from each of the cell lines were irradiated by subjecting the cells to X-ray radiation, P-32, and Bi-212. The X-ray source that was used is a General Electric 250 kvp Maxitron, 26 […] (mA) (HVL 1.5 mm Cu) operated at a dose rate of 1.11 Greys per minute (Gy/min). The cells, in both monolayer and spheroid form were exposed at room temperature and then immediately plated for survival.
Cells in both monolayer and spheroid were exposed to P-32 chromic phosphate. The radiation dose to each sample was calculated as: […]
After exposure, the cells were washed in phosphate-buffered saline (PBS) and immediately plated for survival.
as §1, §2, §3, §4

[4] = 1/2 hour after intraperitoneal instillation
[5] = 1 hour after intraperitoneal instillation
[6] = 3 hours after intraperitoneal instillation

## [212Bi] [Bi-212, bismuth-212]
[1]
  D0 (intrinsic radiosensitivity): 0.65 Gy
[2]; [4]
  Peritoneal fluid: 85.0 % IA and 70.3 % IA and 90.1 % IA
  Stomach: 0.26 % IA and 0.34 % IA
[2]; [5]
  Lower intestine & colon: 0.87 % IA
  Peritoneal fluid: 85.7 % IA and 85.1 % IA and 88 % IA
  Stomach: 0.09 % IA
[2]; [6]
  Circulating blood: 3.4 % IA and 1.86 % IA and 2.96 % IA
  Kidney: 2.15 % IA and 1.21 % IA and 2.10 % IA
  Liver: 2.26 % IA and 2.25 % IA and 1.17 % IA
  Lower intestine & colon: 7.14 % IA and 5.87 % IA and 9.14 % IA
  Peritoneal fluid: 75.8 % IA and 80.2 % IA and 83.8 % IA
  Reproductive organs: 0.53 % IA and 0.61 % IA and 0.59 % IA
  Stomach: 0.90 % IA and 0.76 % IA and 0.59 % IA
  Upper small intestine: 8.04 % IA and 6.63 % IA and 9.73 % IA
[3]; dose to 37 percent survival
  D0 (intrinsic radiosensitivity): 0.55 Gy
[3]; relative to X-ray
  Relative biological effectiveness (RBE): 2.81
